{"source": "ChEMBL document CHEMBL1146678", "about": "“Inhibitors of multidrug resistance (MDR) have affinity for MDR substrates” (Bioorg Med Chem Lett, 2004)", "key": {"[1]": {"test": "Dose modifying factor expressed as the ratio of IC50 for the chemotherapy drug to IC50 for drug + GG918; Range = 1.0-23", "format": "functional"}, "[2]": {"test": "Fold reduction in minimum inhibitory concentration of antibiotic in presence of Reserpine", "format": "functional"}, "Lycopus europaeus": {"system": "Lycopus europaeus", "test": "Inhibitory activity against Lycopus europeus; no inhibitory activity", "format": "functional, organism-based"}, "[3]": {"test": "Fold reduction in minimum inhibitory concentration of antibiotic in presence of GG918", "format": "functional"}, "NCI-H69 [4]": {"system": "NCI-H69", "test": "Percentage inhibition of cell growth in the presence of compound in H69/LX4 cells with verapamil as inhibitor; reversal of inhibition", "format": "functional, cell-based"}, "NCI-H69 [5]": {"system": "NCI-H69", "test": "Percentage inhibition of cell growth in the presence of compound in H69/LX4 cells with Clofazemine as inhibitor; reversal of inhibition", "format": "functional, cell-based"}, "NCI-H69 [6]": {"system": "NCI-H69", "test": "Percentage inhibition of cell growth in the presence of compound in H69/LX4 cells with B669 as inhibitor; reversal of inhibition", "format": "functional, cell-based"}, "NCI-H69 [7]": {"system": "NCI-H69", "test": "Percentage inhibition of cell growth in the presence of compound in H69/LX4 cells with as GG918 inhibitor; reversal of inhibition", "format": "functional, cell-based"}, "[8]": {"test": "Relative resistance is the ratio of IC50 values of drug with JTV-519 to that without the reversing agent", "format": "functional"}, "[9]": {"test": "Dose modifying factor expressed as the ratio of IC50 for the chemotherapy drug to IC50 for drug + GG918; Range = 1.2-1850", "format": "functional"}, "[10]": {"test": "Fold reduction in fluorescence in presence and absence of MC-002595 at 128 mg/mL", "format": "functional"}, "[11]": {"test": "Inhibitory concentration in presence of MDR inhibitor XR-9576", "format": "functional"}, "A549 [12]": {"system": "A549", "test": "Synergism with sulindac in A549 cells", "format": "functional"}, "A549 [13]": {"system": "A549", "test": "Synergism with indomethacin in A549 cells", "format": "functional"}, "[14]": {"test": "Relative inhibition (IC50) in presence and absence of reserpine", "format": "functional"}, "DLKP cell line [15]": {"system": "DLKP cell line", "test": "Synergism with sulindac in DLKP cells", "format": "functional"}, "DLKP cell line [16]": {"system": "DLKP cell line", "test": "Synergism with tolmedin in DLKP cells", "format": "functional"}, "NCI-H69 [17]": {"system": "NCI-H69", "test": "Approximate percentage for level of inhibition of cell growth in presence and absence of inhibitor (Value of drug + Clofazimine / Value of drug)", "format": "functional"}, "NCI-H69 [18]": {"system": "NCI-H69", "test": "Approximate percentage for level of inhibition of cell growth in presence and absence of inhibitor (Value of drug + GG918 / Value of drug)", "format": "functional"}, "NCI-H69 [19]": {"system": "NCI-H69", "test": "Approximate percentage for level of inhibition of cell growth in presence and absence of inhibitor (Value of drug + B669 / Value of drug)", "format": "functional"}, "A549 [20]": {"system": "A549", "test": "Synergism with tolmetin in A549 cells", "format": "functional"}, "NCI-H69 [21]": {"system": "NCI-H69", "test": "Approximate percentage for level of inhibition of cell growth in presence and absence of inhibitor (Value of drug + Verapamil / Value of drug)", "format": "functional"}, "NCI-H69 [22]": {"system": "NCI-H69", "test": "Approximate percentage for level of inhibition of cell growth in presence and absence of inhibitor (Value of drug + alpha Tochoferol / Value of drug)", "format": "functional"}, "DLKP cell line [23]": {"system": "DLKP cell line", "test": "Synergism with indomethacin in DLKP cells", "format": "functional"}, "DLKP cell line [24]": {"system": "DLKP cell line", "test": "Antagonism of indomethacin in DLKP cells", "format": "functional"}, "A549 [25]": {"system": "A549", "test": "Antagonism of indomethacin in A549 cells", "format": "functional"}, "[26]": {"test": "Inhibitory activity in presence of VX-710 inhibitor; successful in clinical trials", "format": "functional"}, "A549 [27]": {"system": "A549", "test": "Antagonism of sulindac in A549 cells", "format": "functional"}, "A549 [28]": {"system": "A549", "test": "Antagonism of tolmetin in A549 cells", "format": "functional"}, "DLKP cell line [29]": {"system": "DLKP cell line", "test": "Antagonism of sulindac in DLKP cells", "format": "functional"}, "NCI-H69 [30]": {"system": "NCI-H69", "test": "Percentage inhibition of cell growth in the presence of compound and in the absence of […] in H69/LX4 cells with clofazimine MDR inhibitor", "format": "functional"}}, "note": "The source made the active and inactive calls. The calls are words filed in the database; no cut-off is given here. Numbered stars: 1 amine (or outer) side, 2 acyl side, 3 side chain; on linkers, the order of the positions; unused ones are H or OH. Bridge positions count the residues as written; N and C are the ends. Square brackets hold non-standard residues; d marks the D form. Peptide text beside a SMILES is read from it. I, II: the chains in the order shown. Actinocin(9to1) = Cc1c2oc3c(C)ccc(C(=O)[*:1])c3nc-2c(C(=O)[*:2])c(N)c1=O; NMeV = CN[C@H](C(=O)O)C(C)C; Sar = CNCC(=O)O", "data": [{"smiles": "CC[C@@]1(O)C(=O)OCc2c1cc1n(c2=O)Cc2cc3c(CN(C)C)c(O)ccc3nc2-1", "values": [{"measurement": "Ratio", "setting": "[1]", "value": 1}]}, {"smiles": "CCn1cc(C(=O)O)c(=O)c2cc(F)c(N3CCNCC3)cc21", "values": [{"measurement": "Fold reduction", "setting": "[2]", "value": 4}, {"measurement": "inhibition", "setting": "Lycopus europaeus", "value": "inactive"}, {"measurement": "Fold reduction", "setting": "[3]", "value": 8}]}, {"smiles": "COc1c(N2C[C@@H]3CCCN[C@@H]3C2)c(F)cc2c(=O)c(C(=O)O)cn(C3CC3)c12", "values": [{"measurement": "Fold reduction", "setting": "[2]", "value": 2}, {"measurement": "Fold reduction", "setting": "[3]", "value": 0}]}, {"smiles": "Cc1c(C)c2c(c(C)c1O)CC[C@@](C)(CCC[C@H](C)CCC[C@H](C)CCCC(C)C)O2", "values": [{"measurement": "inhibition", "setting": "NCI-H69 [4]", "value": "reversal of inhibition"}, {"measurement": "inhibition", "setting": "NCI-H69 [5]", "value": "reversal of inhibition"}, {"measurement": "inhibition", "setting": "NCI-H69 [6]", "value": "reversal of inhibition"}, {"measurement": "inhibition", "setting": "NCI-H69 [7]", "value": "reversal of inhibition"}]}, {"smiles": "Cc1ccc(NC(=O)c2ccc(CN3CCN(C)CC3)cc2)cc1Nc1nccc(-c2cccnc2)n1", "values": [{"measurement": "Ratio", "setting": "[8]", "value": 3.1}]}, {"smiles": "O=C(O)c1cn(C2CC2)c2cc(N3CCNCC3)c(F)cc2c1=O", "values": [{"measurement": "Fold reduction", "setting": "[2]", "value": 8}, {"measurement": "Fold reduction", "setting": "[3]", "value": 8}]}, {"smiles": "O=C1c2c(O)ccc(O)c2C(=O)c2c(NCCNCCO)ccc(NCCNCCO)c21", "values": [{"measurement": "Ratio", "setting": "[9]", "value": 1.2}]}, {"smiles": "c1ccc(Nc2cccc3ccccc23)cc1", "values": [{"measurement": "Fold reduction", "setting": "[10]", "value": 2.3}]}, {"smiles": "Cc1c2oc3c(C)ccc(C(=O)N[C@@H]4C(=O)N[C@H](C(C)C)C(=O)N5CCC[C@H]5C(=O)N(C)CC(=O)N(C)[C@@H](C(C)C)C(=O)O[C@@H]4C)c3nc-2c(C(=O)N[C@@H]2C(=O)N[C@H](C(C)C)C(=O)N3CCC[C@H]3C(=O)N(C)CC(=O)N(C)[C@@H](C(C)C)C(=O)O[C@@H]2C)c(N)c1=O", "note": "(I: T[dV]P[Sar][NMeV] / II: T[dV]P[Sar][NMeV]; ester I:1-I:C, II:1-II:C; linker I:N-II:N via Actinocin(9to1))", "values": [{"measurement": "Ratio", "setting": "[8]", "value": 3}]}, {"smiles": "COc1cccc2c1C(=O)c1c(O)c3c(c(O)c1C2=O)C[C@@](O)(C(C)=O)C[C@@H]3O[C@H]1C[C@H](N)[C@H](O)[C@H](C)O1", "note": "[DAUNORUBICIN]", "values": [{"measurement": "IC50", "setting": "[11]", "value": 38.2, "unit": "nM"}]}, {"smiles": "COc1cccc2c1C(=O)c1c(O)c3c(c(O)c1C2=O)C[C@@](O)(C(=O)CO)C[C@@H]3O[C@H]1C[C@H](N)[C@H](O)[C@H](C)O1", "note": "[DOXORUBICIN]", "values": [{"measurement": "Combination_index", "setting": "A549 [12]", "value": 0.368}, {"measurement": "Combination_index", "setting": "A549 [13]", "value": 0.251}, {"measurement": "Fold increase", "setting": "[14]", "value": 2.9}, {"measurement": "Combination_index", "setting": "DLKP cell line [15]", "value": 0.449}, {"measurement": "Combination_index", "setting": "DLKP cell line [16]", "value": 0.467}, {"measurement": "Reduction", "setting": "NCI-H69 [17]", "value": "~40", "unit": "%"}, {"measurement": "Reduction", "setting": "NCI-H69 [18]", "value": "~58", "unit": "%"}, {"measurement": "Reduction", "setting": "NCI-H69 [19]", "value": "~31", "unit": "%"}, {"measurement": "Combination_index", "setting": "A549 [20]", "value": 0.357}, {"measurement": "Reduction", "setting": "NCI-H69 [21]", "value": "~33", "unit": "%"}, {"measurement": "Reduction", "setting": "NCI-H69 [22]", "value": 0, "unit": "%"}]}, {"smiles": "COc1cc([C@@H]2c3cc4c(cc3[C@@H](O[C@@H]3O[C@@H]5CO[C@@H](C)O[C@H]5[C@H](O)[C@H]3O)[C@H]3COC(=O)[C@H]23)OCO4)cc(OC)c1O", "note": "[ETOPOSIDE]", "values": [{"measurement": "Combination_index", "setting": "A549 [12]", "value": 0.681}, {"measurement": "Combination_index", "setting": "A549 [13]", "value": 0.916}, {"measurement": "Combination_index", "setting": "DLKP cell line [15]", "value": 0.463}, {"measurement": "Combination_index", "setting": "DLKP cell line [16]", "value": 0.745}, {"measurement": "Ratio", "setting": "[8]", "value": 2.6}, {"measurement": "Combination_index", "setting": "DLKP cell line [23]", "value": 0.534}]}, {"smiles": "CC(=O)O[C@H]1C(=O)[C@@]2(C)[C@H]([C@H](OC(=O)c3ccccc3)[C@]3(O)C[C@H](OC(=O)[C@H](O)[C@@H](NC(=O)c4ccccc4)c4ccccc4)C(C)=C1C3(C)C)[C@]1(OC(C)=O)CO[C@@H]1C[C@@H]2O", "note": "[PACLITAXEL]", "values": [{"measurement": "Combination_index", "setting": "DLKP cell line [24]", "value": 1.227}, {"measurement": "Combination_index", "setting": "A549 [25]", "value": 2.234}, {"measurement": "inhibition", "setting": "[26]", "value": "Active"}, {"measurement": "Combination_index", "setting": "A549 [27]", "value": 1.539}, {"measurement": "Combination_index", "setting": "A549 [28]", "value": 1.349}, {"measurement": "Combination_index", "setting": "DLKP cell line [29]", "value": 1.233}]}, {"smiles": "CC[C@]1(O)C[C@@H]2CN(CCc3c([nH]c4ccccc34)[C@@](C(=O)OC)(c3cc4c(cc3OC)N(C)[C@H]3[C@@](O)(C(=O)OC)[C@H](OC(C)=O)[C@]5(CC)C=CCN6CC[C@]43[C@@H]65)C2)C1", "note": "[VINBLASTINE]", "values": [{"measurement": "Fold increase", "setting": "[14]", "value": 8}, {"measurement": "Reduction", "setting": "NCI-H69 [30]", "value": "~94", "unit": "%"}, {"measurement": "Reduction", "setting": "NCI-H69 [21]", "value": "~88", "unit": "%"}, {"measurement": "Reduction", "setting": "NCI-H69 [22]", "value": "~95", "unit": "%"}]}, {"smiles": "CC[C@]1(O)C[C@H]2CN(CCc3c([nH]c4ccccc34)[C@@](C(=O)OC)(c3cc4c(cc3OC)N(C=O)[C@H]3[C@@](O)(C(=O)OC)[C@H](OC(C)=O)[C@]5(CC)C=CCN6CC[C@]43[C@@H]65)C2)C1", "note": "[VINCRISTINE]", "values": [{"measurement": "Combination_index", "setting": "A549 [12]", "value": 0.462}, {"measurement": "Combination_index", "setting": "A549 [13]", "value": 0.301}, {"measurement": "Combination_index", "setting": "DLKP cell line [15]", "value": 0.241}, {"measurement": "Combination_index", "setting": "DLKP cell line [16]", "value": 0.593}, {"measurement": "Ratio", "setting": "[8]", "value": 3.7}]}]}
